From ChEMBL document CHEMBL1201862, “PubChem BioAssay data set” (2004) come the findings set out here.

Among the test systems are TK-10; SR; COLO 205; MDA-N; HL-60; MCF7; SF-539; T47D; HCC 2998; K562; MOLT-4; SN12C; HCT-15; OVCAR-8; NCI-H23; A549; DU-145; MDA-MB-435; KM12.
Common to all, as to experiment: NCI anticancer screen, dose series, 48 h

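Interpolation was linear, between the two tested concentrations surrounding the appropriate level; five concentrations were tested over 48 hours in 96-well plates. GI50 is the concentration that inhibits growth by half.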 Activity calls are given as the source filed them. Cut-off read from the data, not from the text of the source: active = GI50 up to about 1.1 µM and inactive = higher.

Consider `CNc1ccc(Cl)cc1S(=O)(=O)c1ccccc1[N+](=O)[O-]`, for which the GI50 in the assay with TK-10, in the assay with SR, in the assay with COLO 205, in the assay with MDA-N, in the assay with HL-60 and with MCF7 was > 100 µM (inactive) throughout. Also, the GI50 in the assay on SF-539, with T47D, with HCC 2998, with K562, with MOLT-4 and in the assay with SN12C was > 100 µM (inactive) in each case. Further, the GI50 is above 100 µM in the assay with HCT-15; > 100 µM (inactive) with OVCAR-8; > 100 µM (inactive) in the assay on NCI-H23; > 100 µM (inactive) in the assay on A549; > 100 µM (inactive) in the assay on DU-145.

For the molecule `CC(/C=N/N=C1NCCCN1)=N\N=C1NCCCN1`, the GI50 with TK-10, in the assay with SR, with COLO 205, in the assay with MDA-N, with MCF7 and in the assay with SF-539 was > 100 µM (inactive) throughout. The GI50 in the assay with T47D, in the assay on HCC 2998, with K562, in the assay on MOLT-4, with SN12C and in the assay on MDA-MB-435 was > 100 µM (inactive) in each case. Besides, the GI50 is above 100 µM in the assay on HCT-15; > 100 µM (inactive) with KM12; > 100 µM (inactive) with OVCAR-8; > 100 µM (inactive) with NCI-H23; > 100 µM (inactive) in the assay on A549.

With `COc1cc(/C=C(\C#N)c2ccccn2)cc(Br)c1O`, the GI50 was > 100 µM (inactive) with TK-10; 22.7 µM (inactive) in the assay with SR; 35.5 µM (inactive) in the assay on COLO 205; > 100 µM (inactive) in the assay with MDA-N; 24 µM (inactive) in the assay with HL-60; 24.4 µM (inactive) in the assay with MCF7. Further, the GI50 with SF-539 was 31.3 µM (inactive); in the assay on HCC 2998, 36.8 µM (inactive); with K562, 4.48 µM (inactive); in the assay on MOLT-4, 35 µM (inactive); in the assay on SN12C, 45.2 µM (inactive); in the assay on HCT-15, 21.9 µM. In addition, the GI50 with KM12 was 36.1 µM (inactive); in the assay on OVCAR-8, 65.3 µM (inactive); with NCI-H23, 31 µM (inactive); with A549 it was 58.6 µM (inactive); in the assay on DU-145, > 100 µM (inactive).

Take `Cc1ccc(-c2c(C#N)c(-c3ccc(C)cc3)n(NS(=O)(=O)c3ccccc3)c(=O)c2C#N)cc1`: the GI50 in the assay on TK-10 was 76.2 µM (inactive); in the assay with COLO 205 it was 89.5 µM (inactive); in the assay with MCF7, 24 µM (inactive); in the assay with SF-539, 21.2 µM (inactive); with HCC 2998 it was 25.2 µM (inactive); in the assay on K562, 49.2 µM (inactive). Further, the GI50 in the assay on MOLT-4 was 25.2 µM (inactive); in the assay with SN12C it was 62.2 µM (inactive); with MDA-MB-435, 61.1 µM (inactive); in the assay on HCT-15, 39.4 µM; in the assay on KM12, 56.5 µM (inactive); in the assay with OVCAR-8 it was 69.2 µM (inactive). In the assay with A549, the GI50 is 41.2 µM (inactive).

Regarding `O=C(CC(=O)n1nc(-c2ccccc2)c(/N=N/c2ccccc2C(=O)O)c1-c1ccccc1)Nc1ccc(Cl)cc1`, the GI50 with TK-10 is > 100 µM (inactive); with SR it was 11.6 µM (inactive); in the assay with COLO 205 it was 50.7 µM (inactive); in the assay with MDA-N, 36.1 µM (inactive); in the assay with HL-60 it was 10.2 µM (inactive); in the assay on MCF7 it was 30.3 µM (inactive). For the same molecule, the GI50 in the assay with T47D is 9.77 µM (inactive); in the assay with HCC 2998, 34.4 µM (inactive); with K562, 25.6 µM (inactive); in the assay with MOLT-4, 5.57 µM (inactive); with HCT-15, 26.9 µM; in the assay on KM12, > 100 µM (inactive). Besides, the GI50 is 36.8 µM (inactive) in the assay with OVCAR-8, 20.5 µM (inactive) with NCI-H23 and 34.1 µM (inactive) in the assay on A549.

Consider `CC(=O)Nc1ccc(NCC(=O)Nn2cnc3ccc(S(=O)(=O)Nc4ccc(NC(C)=O)cc4)cc3c2=O)cc1`, for which the GI50 with TK-10, with SR, in the assay with COLO 205, in the assay with MDA-N, with HL-60 and with MCF7 was > 100 µM (inactive) in each case. The GI50 in the assay with SF-539, in the assay on HCC 2998, with K562, with MOLT-4, in the assay with SN12C and with MDA-MB-435 was > 100 µM (inactive) each time. The GI50 in the assay on HCT-15 is above 100 µM; in the assay with KM12, > 100 µM (inactive); with OVCAR-8, > 100 µM (inactive); in the assay with NCI-H23, > 100 µM (inactive); in the assay on A549, > 100 µM (inactive); in the assay on DU-145 it was > 100 µM (inactive).

Regarding `Cc1ccc(C(=O)/C=C(O)/C(O)=C/C(=O)c2ccc(C)cc2C)c(C)c1`, the GI50 in the assay with TK-10 was 1.8 µM (inactive); in the assay on SR, 2.33 µM (inactive); in the assay on COLO 205, 1.82 µM (inactive); with HL-60, 0.0641 µM (active); with MCF7, 2.02 µM (inactive); with SF-539 it was 1.85 µM (inactive). Besides, the GI50 in the assay on T47D was 2.05 µM (inactive); in the assay with HCC 2998, 1.92 µM (inactive); in the assay on K562, 2.96 µM (inactive); in the assay with MOLT-4, 1.98 µM (inactive); in the assay on SN12C it was 2.1 µM (inactive); in the assay on MDA-MB-435, 2.01 µM (inactive). Besides, the GI50 with HCT-15 was 2 µM; with KM12 it was 1.88 µM (inactive); in the assay on OVCAR-8, 2.86 µM (inactive); in the assay on NCI-H23, 1.65 µM (inactive); with A549, 2.48 µM (inactive); in the assay with DU-145, 2.36 µM (inactive).

Consider `CN(C)CCn1c2c(c3ccccc31)CCc1ccccc1-2`, for which the GI50 in the assay with TK-10 was 16.7 µM (inactive); in the assay with SR, 10.8 µM (inactive); in the assay on COLO 205, 11.3 µM (inactive); with MCF7 it was 16.8 µM (inactive); in the assay with SF-539 it was 13.4 µM (inactive); in the assay on T47D, 15.8 µM (inactive). In addition, the GI50 in the assay with HCC 2998 is 0.569 µM (active); in the assay on MOLT-4, 10.8 µM (inactive); with SN12C, 13.8 µM (inactive); in the assay on MDA-MB-435, 17.4 µM (inactive); in the assay on HCT-15, 10.7 µM; with KM12, 13.4 µM (inactive). Also, the GI50 in the assay on OVCAR-8 is 16 µM (inactive); with NCI-H23 it was 17.4 µM (inactive); in the assay with A549, 15 µM (inactive); with DU-145, 16.1 µM (inactive).

Regarding `Cn1ccnc1S/C(=C\C=C(C#N)C#N)c1ccc(Cl)cc1`, the GI50 in the assay with TK-10 is 0.492 µM (active); in the assay with SR, 0.143 µM (active); in the assay with COLO 205 it was 2.99 µM (inactive); in the assay with HL-60 it was 0.461 µM (active); in the assay on MCF7 it was 0.698 µM (active); in the assay on SF-539, 1.21 µM (inactive). For the same molecule, the GI50 is 4.42 µM (inactive) in the assay on T47D; 4.92 µM (inactive) in the assay on HCC 2998; 0.252 µM (active) in the assay on K562; 1.18 µM (inactive) in the assay with MOLT-4; 1.09 µM (active) in the assay on SN12C; 0.951 µM (active) in the assay with MDA-MB-435. Besides, the GI50 was 2.52 µM with HCT-15; 2.06 µM (inactive) with KM12; 1.12 µM (active) in the assay on OVCAR-8; 1.61 µM (inactive) with NCI-H23; 6.27 µM (inactive) with A549; 6.04 µM (inactive) with DU-145.

In the case of `COc1ccc(C2N(c3ccc(C)c(N=C=O)c3)C(=O)N3C(c4ccc(OC)cc4)N(c4ccc(C)c(N=C=O)c4)C(=O)N23)cc1` (stereo not given), the GI50 in the assay on TK-10 was > 100 µM (inactive); in the assay with SR it was > 100 µM (inactive); in the assay on COLO 205, 62.4 µM (inactive); with MDA-N it was > 100 µM (inactive); with HL-60 it was > 100 µM (inactive); with MCF7 it was > 100 µM (inactive). In addition, the GI50 in the assay with SF-539, with HCC 2998, with K562, in the assay on MOLT-4, in the assay with SN12C and in the assay on MDA-MB-435 was > 100 µM (inactive) each time. In addition, the GI50 with HCT-15 was above 100 µM; in the assay on KM12, > 100 µM (inactive); in the assay on OVCAR-8, > 100 µM (inactive); in the assay with NCI-H23 it was > 100 µM (inactive); with A549 it was > 100 µM (inactive); in the assay with DU-145, > 100 µM (inactive).

`CCCCn1c(C)c(C)c2c1NN=C(C#N)S2(=O)=O`: the GI50 with TK-10 is > 100 µM (inactive); with SR it was 75 µM (inactive); in the assay with COLO 205 it was > 100 µM (inactive); with MCF7 it was > 100 µM (inactive); with SF-539, > 100 µM (inactive); in the assay on T47D it was > 100 µM (inactive). The GI50 in the assay on HCC 2998 was > 100 µM (inactive); with K562, > 100 µM (inactive); with MOLT-4 it was > 100 µM (inactive); in the assay on SN12C, > 100 µM (inactive); in the assay on MDA-MB-435, > 100 µM (inactive); in the assay on HCT-15, above 100 µM. The GI50 in the assay on KM12, in the assay on OVCAR-8, in the assay on NCI-H23, in the assay on A549 and in the assay with DU-145 was > 100 µM (inactive) throughout.

Turning to `CC(=O)Oc1ccc2c(C)cc(=O)oc2c1OC(C)=O`, the GI50 in the assay with TK-10 is 24.2 µM (inactive); in the assay with SR, 17.3 µM (inactive); with COLO 205, 42.8 µM (inactive); with MDA-N it was > 100 µM (inactive); with MCF7, 49.4 µM (inactive); in the assay on SF-539 it was > 100 µM (inactive). Further, the GI50 with K562 was 47.8 µM (inactive); in the assay with MOLT-4 it was 34.5 µM (inactive); in the assay with SN12C, 57.8 µM (inactive); with MDA-MB-435, 63.4 µM (inactive); in the assay on HCT-15, 21.1 µM; in the assay on KM12, 44 µM (inactive). In addition, the GI50 with OVCAR-8 is 27 µM (inactive); with NCI-H23, 26.9 µM (inactive); with A549, 38.4 µM (inactive); in the assay with DU-145, 28.3 µM (inactive).
